In BindingDB's records for doi:10.1016/j.bmcl.2004.02.007 (Research Triangle Institute, 2004) one finds Ki data, which are given here for two compounds.

In experiment [1] the target is Neuronal acetylcholine receptor subunit alpha-4/beta-2 (Rattus norvegicus, UniProt P09483+P12390). The experiment is described as follows: Binding affinity towards rat Nicotinic acetylcholine receptor alpha4-beta2 expressed in Xenopus oocytes using [3H]epibatidine as radioligand.
Experiment [2] has as its target Neuronal acetylcholine receptor subunit alpha-3/beta-2 (Rattus norvegicus, UniProt P12390+P04757). The experiment is described as follows: Binding affinity towards rat Nicotinic acetylcholine receptor alpha3-beta2 expressed in Xenopus oocytes using [3H]epibatidine as radioligand.

pKi: −log10 of the molar value.

Neuronal acetylcholine receptor subunit alpha-4/beta-2, sequence (P09483 whole entry): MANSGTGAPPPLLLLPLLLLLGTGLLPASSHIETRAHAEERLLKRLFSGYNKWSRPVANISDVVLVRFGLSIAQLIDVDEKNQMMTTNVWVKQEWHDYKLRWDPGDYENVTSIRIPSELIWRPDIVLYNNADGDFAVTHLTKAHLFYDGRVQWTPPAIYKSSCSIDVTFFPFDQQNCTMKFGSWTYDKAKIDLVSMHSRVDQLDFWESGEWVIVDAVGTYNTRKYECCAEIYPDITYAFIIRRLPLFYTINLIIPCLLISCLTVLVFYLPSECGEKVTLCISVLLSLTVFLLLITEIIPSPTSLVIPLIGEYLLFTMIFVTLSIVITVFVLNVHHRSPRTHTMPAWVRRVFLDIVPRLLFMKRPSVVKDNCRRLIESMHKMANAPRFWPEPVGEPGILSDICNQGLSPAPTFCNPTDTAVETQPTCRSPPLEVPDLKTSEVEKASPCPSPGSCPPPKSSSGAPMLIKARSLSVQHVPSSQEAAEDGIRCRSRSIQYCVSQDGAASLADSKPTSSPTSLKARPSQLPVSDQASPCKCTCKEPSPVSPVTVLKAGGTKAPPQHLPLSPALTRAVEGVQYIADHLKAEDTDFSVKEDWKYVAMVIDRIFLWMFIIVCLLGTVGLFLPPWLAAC
Neuronal acetylcholine receptor subunit alpha-4/beta-2, sequence (P12390 whole entry): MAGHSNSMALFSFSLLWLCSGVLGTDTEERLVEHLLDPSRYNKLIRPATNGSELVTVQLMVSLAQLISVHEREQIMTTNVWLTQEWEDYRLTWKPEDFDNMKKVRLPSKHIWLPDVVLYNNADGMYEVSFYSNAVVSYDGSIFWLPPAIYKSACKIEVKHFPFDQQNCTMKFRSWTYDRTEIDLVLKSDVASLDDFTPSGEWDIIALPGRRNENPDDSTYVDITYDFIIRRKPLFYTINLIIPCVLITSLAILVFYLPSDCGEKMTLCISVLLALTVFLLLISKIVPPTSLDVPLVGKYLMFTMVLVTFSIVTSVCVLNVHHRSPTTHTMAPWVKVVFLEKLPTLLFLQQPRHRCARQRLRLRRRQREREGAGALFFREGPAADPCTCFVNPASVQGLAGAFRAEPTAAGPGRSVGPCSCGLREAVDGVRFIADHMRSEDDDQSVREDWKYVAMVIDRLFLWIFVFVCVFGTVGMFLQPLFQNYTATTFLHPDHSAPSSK
Neuronal acetylcholine receptor subunit alpha-3/beta-2, sequence (P12390 whole entry): as above
Neuronal acetylcholine receptor subunit alpha-3/beta-2, sequence (P04757 whole entry): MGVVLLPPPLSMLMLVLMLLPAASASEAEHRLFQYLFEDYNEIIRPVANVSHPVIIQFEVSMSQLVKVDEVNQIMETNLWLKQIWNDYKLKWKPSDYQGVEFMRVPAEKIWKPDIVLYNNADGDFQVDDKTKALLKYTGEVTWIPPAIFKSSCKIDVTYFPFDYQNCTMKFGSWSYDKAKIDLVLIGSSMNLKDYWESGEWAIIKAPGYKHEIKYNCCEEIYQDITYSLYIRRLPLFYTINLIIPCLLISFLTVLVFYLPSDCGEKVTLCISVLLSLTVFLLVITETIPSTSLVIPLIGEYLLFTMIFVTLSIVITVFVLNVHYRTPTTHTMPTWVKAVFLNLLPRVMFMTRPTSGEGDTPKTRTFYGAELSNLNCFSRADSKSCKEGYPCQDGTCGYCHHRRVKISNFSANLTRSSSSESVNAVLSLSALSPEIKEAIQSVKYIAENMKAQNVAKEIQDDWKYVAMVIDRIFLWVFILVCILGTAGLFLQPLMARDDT

Take `c1cncc(C2CC3CCC2N3)c1` (configuration not stated) [2-(pyridin-3-yl)-7-aza-bicyclo[2.2.1]heptane]: in experiment [1], the negative-log Ki (pKi) was 11.05.

With `Fc1ccc(C2CC3CCC2N3)cn1` [(R)-2-(6-Fluoro-pyridin-3-yl)-7-aza-bicyclo[2.2.1]heptane], the pKi in experiment [2] was 11.40.
